Tested on: candida albicans
Test: Candida albicans challenge (log reduction)
Format: cell-based
Conditions: components applied separately at the same concentrations (400 ppm chlorite; 100 ppm hydrogen peroxide)

## OO [hydrogen peroxide]
  effect on candida albicans activity: ineffective

## chlorite
  effect on candida albicans activity: ineffective
